{"source": "paper PMC12215270", "about": "(Nature Communications, 2025)", "key": {"[1]": {"target": "T1, TgCet (RNA triphosphatase) (Toxoplasma gondii, UniProt S8F0G9)", "T1 sequence (S8F0G9 1-920)": "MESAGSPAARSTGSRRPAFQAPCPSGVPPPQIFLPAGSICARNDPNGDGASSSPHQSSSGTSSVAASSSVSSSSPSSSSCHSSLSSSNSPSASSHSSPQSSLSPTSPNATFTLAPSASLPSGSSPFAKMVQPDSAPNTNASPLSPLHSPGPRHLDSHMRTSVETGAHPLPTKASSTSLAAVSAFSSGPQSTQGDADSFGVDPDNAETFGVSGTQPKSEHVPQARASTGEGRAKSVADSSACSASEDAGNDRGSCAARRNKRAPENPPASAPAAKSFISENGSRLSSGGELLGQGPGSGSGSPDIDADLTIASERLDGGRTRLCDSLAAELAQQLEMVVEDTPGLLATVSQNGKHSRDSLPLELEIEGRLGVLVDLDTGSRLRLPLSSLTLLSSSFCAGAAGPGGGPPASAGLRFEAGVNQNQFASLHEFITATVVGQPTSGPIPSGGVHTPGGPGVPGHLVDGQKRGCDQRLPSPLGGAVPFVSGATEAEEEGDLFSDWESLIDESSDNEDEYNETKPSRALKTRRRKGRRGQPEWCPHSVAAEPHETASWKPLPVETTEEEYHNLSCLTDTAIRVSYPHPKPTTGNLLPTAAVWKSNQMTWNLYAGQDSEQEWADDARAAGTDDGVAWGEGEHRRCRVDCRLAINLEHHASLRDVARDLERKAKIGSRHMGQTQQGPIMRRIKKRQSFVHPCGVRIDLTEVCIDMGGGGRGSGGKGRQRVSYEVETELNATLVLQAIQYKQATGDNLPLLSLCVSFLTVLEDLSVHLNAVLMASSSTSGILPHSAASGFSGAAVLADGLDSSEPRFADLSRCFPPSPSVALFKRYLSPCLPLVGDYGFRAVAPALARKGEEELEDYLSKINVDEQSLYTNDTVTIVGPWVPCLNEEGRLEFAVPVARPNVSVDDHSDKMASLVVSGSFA", "experiment": "ATPase assay", "assay_type": "biochemical"}, "[2]": {"target": "T2, TgCmt (guanine-N7 methyltransferase) (Toxoplasma gondii, UniProt S8F527)", "T2 sequence (S8F527 716-1283)": "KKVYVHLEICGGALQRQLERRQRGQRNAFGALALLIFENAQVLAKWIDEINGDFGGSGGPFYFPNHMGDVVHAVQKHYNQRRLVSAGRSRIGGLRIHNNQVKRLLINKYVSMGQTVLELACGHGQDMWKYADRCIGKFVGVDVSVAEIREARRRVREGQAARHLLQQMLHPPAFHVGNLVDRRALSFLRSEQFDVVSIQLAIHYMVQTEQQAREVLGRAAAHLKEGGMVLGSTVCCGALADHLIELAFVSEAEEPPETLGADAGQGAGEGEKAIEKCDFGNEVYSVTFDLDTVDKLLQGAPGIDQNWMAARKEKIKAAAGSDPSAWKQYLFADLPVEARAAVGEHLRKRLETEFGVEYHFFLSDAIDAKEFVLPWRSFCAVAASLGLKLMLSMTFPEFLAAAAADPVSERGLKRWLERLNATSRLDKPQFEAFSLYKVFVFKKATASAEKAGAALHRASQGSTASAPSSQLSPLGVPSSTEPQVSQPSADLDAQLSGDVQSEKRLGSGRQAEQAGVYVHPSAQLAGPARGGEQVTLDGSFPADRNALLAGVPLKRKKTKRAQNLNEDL", "experiment": "in vitro RNA cap methylation, anti-m7G immuno-dot blot", "assay_type": "biochemical"}}, "data": [{"smiles": "O=c1c(O)c(-c2cc(O)c(O)c(O)c2)oc2cc(O)cc(O)c12", "note": "[Myricetin]", "values": [{"measurement": "IC50", "setting": "[1]", "value": 400, "unit": "nM"}]}, {"smiles": "Nc1ncnc2c1ncn2[C@@H]1O[C@H](C[C@@H](N)CC[C@H](N)C(=O)O)[C@@H](O)[C@H]1O", "note": "[sinefungin]", "values": [{"measurement": "in vitro RNA cap methylation, anti-m7G immuno-dot blot", "setting": "[2]", "value": "sinefungin inhibits m^7GpppN32 synthesis in a concentration-dependent manner"}]}]}
